Measurements published in patent publication US20120046317A1, “NOVEL HETEROCYCLIC COMPOUNDS” (priority 2009, published 2012).
Read-outs that look alike come from different tables or passages of the source. Blank lines part the entries; values can stand above or below the compound they belong to.

Columns and labels:
[1] = Single dose oral pharmacokinetics of Reference compound-T and compound no. 100 in dog; conditions: male dog, 15 mg/kg, administered compound in plasma, mean
Description: (§1) Non-compartmental pharmacokinetic analysis was performed using WinNonlin 5.2.

[2] = Single dose oral pharmacokinetics of Reference compound-T and compound no. 100 in Wistar rat; conditions: male Wistar rat, 10 mg/kg
Description: (§2) Summary of Oral Pharmacokinetics of Reference Compound-T and Compound No. 100 in Wistar Rat:
(§3) Single dose pharmacokinetics of Reference compound-T (3-((2-(methylsulfonyl)hydrazino)carbonyl)-1-(2-oxo-2-thienylethyl)pyridinium chloride) and compound no. 100 was studied in male Wistar rat (280-300 gm, n=5) after oral administration at a dose of 10 mg/kg. Blood samples were obtained serially from jugular vein cannulated animals at selected time points and concentration of Reference compound-T and compound no. 100 in plasma was determined by LC-MS/MS. Non-compartmental pharmacokinetic analysis was performed using WinNonlin 5.2. […] 100.

Ob-ZSF1 animal model = conditions: cited from earlier work
patients = conditions: phase 2 clinical studies; particularly in more severely affected patients; cited from earlier work
[3] = test system: diabetic spontaneously hypertensive rats; conditions: cited from earlier work
[4] = test system: AGE-LDL formation (Low density lipoprotein incubated with CuCl2); assay: In vitro inhibition of AGE-LDL formation: LDL incubated with CuCl2, MDA-lysine adduct fluorescence; format: biochemical; conditions: Conc. 250 uM; LDL with CuCl2 at 37° C.
Description: In vitro Inhibition of AGE-LDL Formation:
Low density lipoprotein (LDL) was incubated with CuCl2 at 37° C. in phosphate buffered saline in the presence and absence of the following compounds. […] Results were expressed as % MDA-lysine adducts accumulation, considering the extent of the same formed upon incubation with CuCl2 alone as 100%.

[5] = rat, in vivo, po, 10 mg/kg
Description: as §2, §3

[6] = male, dog, in vivo, po, 15 mg/kg
Description: as §1

in vivo [7] = conditions: male, Wistar, rat, po, 10 mg/kg
Description: as §2, §3

[8] = test system: AGE-BSA Formation (Bovine Serum Albumin incubated with ribose); assay: In vitro prevention of advanced glycation endproducts (AGEs) accumulation: BSA incubated with ribose, fluorescence; conditions: Conc. 1 mM, one week
Description: A reduction in fluorescence intensity in the presence of the test compound is an indication of its ability to prevent accumulation of advanced glycation endproducts.
Bovine Serum Albumin was incubated with ribose alone as well as with ribose and different concentrations of the following compounds under aseptic conditions for one week. At the end of the incubation period fluorescence intensity of the samples was measured at excitation and emission wavelengths of 355 nm and 460 nm respectively.

in vivo [9] = conditions: male, dog, po, 15 mg/kg
Description: as §1

[10] = administered compound in plasma, mean

Structure (SMILES): CS(=O)(=O)NNC(=O)c1ccc[n+](CC(=O)c2cccs2)c1.[Cl-] [TRC4186]
Effect on diabetic cardiomyopathy and nephropathy (Ob-ZSF1 animal model): preserved cardiac function and reduced the severity of renal dysfunction

Structure (SMILES): Cc1sc[n+](CC(=O)c2ccccc2)c1C [Alagebrium]
Effect on cardiac function and systolic blood pressure (patients): effective in improving cardiac function and uncontrolled systolic blood pressure

Structure (SMILES): CS(=O)(=O)NNC(=O)c1ccc[n+](CC(=O)c2cccs2)c1.[Br-] [TRC4149]
Effect on endothelial and cardiac function [3]: preserved endothelial and cardiac function

The next lines start with results.

AUC(0-24 hr) [1]: 2477.0 ng·h/mL
Cmax [1]: 258.4 ng/mL
Absorption [2]: absorbed rapidly
AUC(0-8 hr) [2, 10]: 203.6 ng·h/mL
Cmax [2, 10]: 100.5 ng/mL
Structure (SMILES): CS(=O)(=O)NNC(=O)c1ccc[n+](CC(=O)c2cccs2)c1.[Cl-] [Reference compound-T, 3-((2-(methylsulfonyl)hydrazino)carbonyl)-1-(2-oxo-2-thienylethyl)pyridinium chloride]

Absorption [5]: absorbed rapidly
Maximum plasma concentration of reference compound converted after administration of compound no. 100 in comparison to the administration of ref. compound [6]: ~3.6 times
AUC(0-t) (in vivo [7]): 1410 ng·h/mL
Cmax (in vivo [7]): 1350 ng/mL
% Inhibition of AGE-BSA Formation [8]: ++ (++ indicate 11-20%)
AUC(0-t) (in vivo [9]): 1780 ng·h/mL
Cmax (in vivo [9]): 397 ng/mL
Structure (SMILES): CS(=O)(=O)NNC(=O)C1=CN(CC(=O)c2cccs2)C=CC1 [Compound no. 100, N′-(methylsulfonyl)-1-[2-oxo-2-(thiophen-2-yl)ethyl]-1,4-dihydropyridine-3-carbohydrazide]
% Inhibition of AGE-LDL-formation [4]: ++++ (++++ indicate >30%)

% Inhibition of AGE-BSA Formation [8]: + (+ indicate 0-10%)
Structure (SMILES): CS(=O)(=O)NNC(=O)C1=CCCN(CC(=O)c2cccs2)C1 [compound 185, N′-(methylsulfonyl)-1-[2-oxo-2-(thiophen-2-yl)ethyl]-1,2,5,6-tetrahydropyridine-3-carbohydrazide]
% Inhibition of AGE-LDL-formation [4]: +++ (+++ indicate 21-30%)
